*1 amine or outer side, *2 acyl side, *3 side chain or, on linkers, in order; H or OH if unused. Where a SMILES comes first, the peptide text is derived from it. Bridges are numbered along the chain shown (N, C = ends). [ ]: non-standard residue; d: D form. The star is where a group is joined. ξ: configuration not given here. Phe(3-CF3) = N[C@@H](Cc1cccc(C(F)(F)F)c1)C(=O)O; Ala(morpholin-4-yl) = N[C@@H](CN1CCOCC1)C(=O)O; Phe(4-COOH) = N[C@@H](Cc1ccc(C(=O)O)cc1)C(=O)O; X5 = O=C([C@H](Cc1ccc2ncccc2c1)N[*:1])[*:2]; Bip = N[C@@H](Cc1ccc(-c2ccccc2)cc1)C(=O)O; Phe(3-Me) = Cc1cccc(C[C@H](N)C(=O)O)c1; Val(3-OH) = CC(C)(O)[C@H](N)C(=O)O; 3Pal = N[C@@H](Cc1cccnc1)C(=O)O; 4Pal = N[C@@H](Cc1ccncc1)C(=O)O; 2Thi = N[C@@H](Cc1cccs1)C(=O)O; 3Thi = N[C@@H](Cc1ccsc1)C(=O)O; Cha = N[C@@H](CC1CCCCC1)C(=O)O; Cit = NC(=O)NCCC[C@H](N)C(=O)O; Ile(3ξ) = CCC(C)[C@H](N)C(=O)O; dCha = N[C@H](CC1CCCCC1)C(=O)O; Thr(3ξ) = CC(O)[C@H](N)C(=O)O; Carboxymethyl = O=C(O)C*; Orn = NCCC[C@H](N)C(=O)O; Dab = NCC[C@H](N)C(=O)O; Dap = NC[C@H](N)C(=O)O
What follows are compounds tested against T1, human PD-1 / PD-L1-Ig binding on Jurkat cell line over-expressing human PD-1 (Jurkat-PD-1) (Homo sapiens, UniProt Q15116) (assay: Jurkat-PD-1 Cell Binding High-Content Screening Assay (CBA)). Settings: Jurkat-PD-1 cells, PE-labeled PD-L1-Ig 20 nM final; read-out: Jurkat HPD1_PDL1 IC50.
T1 construct: expressed in transfected cells; host or cells: Jurkat
T1 sequence (Q15116 25-288): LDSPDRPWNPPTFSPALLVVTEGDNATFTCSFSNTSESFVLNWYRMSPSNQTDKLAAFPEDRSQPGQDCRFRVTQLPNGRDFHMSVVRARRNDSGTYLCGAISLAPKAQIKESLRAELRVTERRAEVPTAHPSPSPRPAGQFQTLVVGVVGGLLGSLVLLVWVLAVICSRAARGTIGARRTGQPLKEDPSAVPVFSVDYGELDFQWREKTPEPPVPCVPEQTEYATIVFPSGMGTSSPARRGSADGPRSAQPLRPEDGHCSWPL
Type: cell-based
Summary of the method: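 Compounds were preincubated with Jurkat-hPD-1 cells in DMEM plus 10% fetal calf serum for 2 h at 37° C. Phycoerythrin-labeled PD-L1-Ig (20 nM final) was then added for 1 hour. Cells were fixed in 4% paraformaldehyde with Hoechst 33342, and bound fluorescence was quantified by high-content imaging.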

Structure (SMILES) | IC50
CC(C)[C@@H]1NC(=O)[C@H](Cc2c[nH]c3ccccc23)NC(=O)[C@H](CC(=O)O)NC(=O)[C@H](Cc2ccncc2)NC(=O)[C@H](CN)NC(=O)CSC[C@@H](C(=O)N[C@@H](C)C(N)=O)NC(=O)[C@H]([C@@H](C)O)NC(=O)[C@H](C(C)C)NC(=O)[C@H](CC2CCCCC2)NC(=O)[C@H](CCN)NC(=O)[C@@H](CC2CCCCC2)NC(=O)[C@H](CCCN)NC(=O)[C@H](CCC(=O)O)NC(=O)[C@H](Cc2ccc(-c3ccccc3)cc2)NC1=O [Compound 1440] ({CH2CO}-[Dap][4Pal]DWV[Bip]E[Orn][dCha][Dab][Cha]VTCA-NH2; thioether N-14) | 86.8 nM
CC(C)C[C@H]1NC(=O)[C@H](CCCN)NC(=O)[C@H](CCC(=O)O)NC(=O)[C@H](Cc2ccc(-c3ccccc3)cc2)NC(=O)[C@H](C(C)C)NC(=O)[C@H](Cc2c[nH]c3ccccc23)NC(=O)[C@H](CC(=O)O)NC(=O)[C@H](Cc2cccs2)NC(=O)[C@H](Cc2ccccc2)NC(=O)CSC[C@@H](C(=O)N[C@@H](C)C(N)=O)NC(=O)[C@H]([C@@H](C)O)NC(=O)[C@H](C(C)C)NC(=O)[C@H](CC2CCCCC2)NC(=O)[C@H](CCN)NC1=O [Compound 2191] ({CH2CO}-F[2Thi]DWV[Bip]E[Orn][dL][Dab][Cha]VTCA-NH2; thioether N-14) | 59.5 nM
CC(C)C[C@H]1NC(=O)[C@H](CCCN)NC(=O)[C@H](CCC(=O)O)NC(=O)[C@H](Cc2ccc(-c3ccccc3)cc2)NC(=O)[C@H](C(C)C)NC(=O)[C@H](Cc2c[nH]c3ccccc23)NC(=O)[C@H](CC(=O)O)NC(=O)[C@H](Cc2ccc(C#N)cc2)NC(=O)[C@H](Cc2ccncc2)NC(=O)CSC[C@@H](C(=O)N[C@@H](C)C(N)=O)NC(=O)[C@H]([C@@H](C)O)NC(=O)[C@H](C(C)C)NC(=O)[C@H](CC2CCCCC2)NC(=O)[C@H](CCN)NC1=O [Compound 2189] | 32.2 nM
CCC(C)[C@@H]1NC(=O)[C@H](Cc2ccc(-c3ccccc3)cc2)NC(=O)[C@H](C(C)C)NC(=O)[C@H](Cc2cccc(C)c2)NC(=O)[C@H](CC(=O)O)NC(=O)[C@H](Cc2ccc(C(=O)O)cc2)NC(=O)[C@H](Cc2ccncc2)NC(=O)CSC[C@@H](C(N)=O)NC(=O)[C@H](CO)NC(=O)[C@H](C(C)C)NC(=O)[C@H](CC2CCCCC2)NC(=O)[C@H](CCN)NC(=O)[C@@H](CC(C)C)NC(=O)[C@H](CCCN)NC1=O (stereo partly drawn) [Compound 2276] ({CH2CO}-[4Pal][Phe(4-COOH)]D[Phe(3-Me)]V[Bip][Ile(3ξ)][Orn][dL][Dab][Cha]VSC-NH2; thioether N-14) | 26.6 nM
CC(C)C[C@H]1NC(=O)[C@H](CCCN)NC(=O)[C@H](CCC(=O)O)NC(=O)[C@H](Cc2ccc(-c3ccccc3)cc2)NC(=O)[C@H](C(C)C)NC(=O)[C@H](Cc2c[nH]c3ccccc23)NC(=O)[C@H](CC(=O)O)NC(=O)[C@H](Cc2ccc(OCC(=O)O)cc2)NC(=O)[C@H](CN)NC(=O)CSC[C@@H](C(=O)N[C@@H](C)C(N)=O)NC(=O)[C@H]([C@@H](C)O)NC(=O)[C@H](C(C)C)NC(=O)[C@H](CC2CCCCC2)NC(=O)[C@H](CC(N)=O)NC1=O [Compound 1512] ({CH2CO}-[Dap]Y(Carboxymethyl)DWV[Bip]E[Orn][dL]N[Cha]VTCA-NH2; thioether N-14) | 22.9 nM
Cc1cccc(C[C@@H]2NC(=O)[C@H](CC(=O)O)NC(=O)[C@H](Cc3ccc(C(=O)O)cc3)NC(=O)[C@H](Cc3ccc(OCC(=O)O)cc3)NC(=O)CSC[C@@H](C(N)=O)NC(=O)[C@H]([C@@H](C)O)NC(=O)[C@H](C(C)C)NC(=O)[C@H](CC(C)C)NC(=O)[C@H](CCN)NC(=O)[C@@H](CC(C)C)NC(=O)[C@H](CCCN)NC(=O)[C@H](CCC(=O)O)NC(=O)[C@H](Cc3ccc(-c4ccccc4)cc3)NC(=O)[C@H](C(C)C)NC2=O)c1 [Compound 1556] ({CH2CO}-Y(Carboxymethyl)[Phe(4-COOH)]D[Phe(3-Me)]V[Bip]E[Orn][dL][Dab]LVTC-NH2; thioether N-14) | 90.9 nM
CC(C)C[C@H]1NC(=O)[C@H](CCCN)NC(=O)[C@H](CCC(=O)O)NC(=O)[C@H](Cc2ccc(-c3ccccc3)cc2)NC(=O)[C@H](C(C)C)NC(=O)[C@H](Cc2ccc3ncccc3c2)NC(=O)[C@H](CC(=O)O)NC(=O)[C@H](Cc2ccc(OCC(=O)O)cc2)NC(=O)[C@H](CN)NC(=O)CSC[C@@H](C(=O)N[C@@H](C)C(N)=O)NC(=O)[C@H]([C@@H](C)O)NC(=O)[C@H](C(C)C)NC(=O)[C@H](CC2CCCCC2)NC(=O)[C@H](CCN)NC1=O [Compound 2145] ({CH2CO}-[Dap]Y(Carboxymethyl)D[X5]V[Bip]E[Orn][dL][Dab][Cha]VTCA-NH2; thioether N-14) | 469 nM
CC(C)C[C@@H]1NC(=O)[C@H](CCN)NC(=O)[C@@H](CC(C)C)NC(=O)[C@H](CCCN)NC(=O)[C@H](CCCNC(N)=O)NC(=O)[C@H](Cc2ccc(-c3ccccc3)cc2)NC(=O)[C@H](C(C)C)NC(=O)[C@H](Cc2c[nH]c3ccccc23)NC(=O)[C@H](CC(=O)O)NC(=O)[C@H](Cc2ccc(O)cc2)NC(=O)[C@H](Cc2cccnc2)NC(=O)CSC[C@@H](C(=O)N[C@@H](C)C(N)=O)NC(=O)[C@H]([C@@H](C)O)NC(=O)[C@H](C(C)C)NC1=O [Compound 1041] ({CH2CO}-[3Pal]YDWV[Bip][Cit][Orn][dL][Dab]LVTCA-NH2; thioether N-14) | 42.4 nM
CC(C)C[C@H]1NC(=O)[C@H](CCCN)NC(=O)[C@H](CCCN)NC(=O)[C@H](Cc2ccc(-c3ccccc3)cc2)NC(=O)[C@H](Cc2ccc(C(=O)O)cc2)NC(=O)[C@H](Cc2cccc(C(F)(F)F)c2)NC(=O)[C@H](CC(N)=O)NC(=O)[C@H](Cc2ccc(C(=O)O)cc2)NC(=O)[C@H](CN2CCOCC2)NC(=O)CSC[C@@H](C(=O)N[C@@H](CCN)C(N)=O)NC(=O)[C@H](CCCN)NC(=O)[C@H](C(C)C)NC(=O)[C@H](CC2CCCCC2)NC(=O)[C@H](CCN)NC1=O [Example 2728] ({CH2CO}-[Ala(morpholin-4-yl)][Phe(4-COOH)]N[Phe(3-CF3)][Phe(4-COOH)][Bip][Orn][Orn][dL][Dab][Cha]V[Orn]C[Dab]-NH2; thioether N-14) | 964 nM

The next compounds have a lower IC50 than those just listed; values first:

IC50 | Structure (SMILES)
11.6 nM | CC(C)C[C@H]1NC(=O)[C@H](CCCN)NC(=O)[C@H](CCC(=O)O)NC(=O)[C@H](Cc2ccc(-c3ccccc3)cc2)NC(=O)[C@H](C(C)C)NC(=O)[C@H](Cc2c[nH]c3ccccc23)NC(=O)[C@H](CC(=O)O)NC(=O)[C@H](Cc2ccncc2)NC(=O)[C@H](Cc2ccccc2)NC(=O)CSC[C@@H](C(=O)N[C@@H](C)C(N)=O)NC(=O)[C@H]([C@@H](C)O)NC(=O)[C@H](C(C)C)NC(=O)[C@H](CC2CCCCC2)NC(=O)[C@H](CCN)NC1=O [Compound 2196] ({CH2CO}-F[4Pal]DWV[Bip]E[Orn][dL][Dab][Cha]VTCA-NH2; thioether N-14)
16.6 nM | Cc1cccc(C[C@@H]2NC(=O)[C@H](CC(=O)O)NC(=O)[C@H](Cc3ccc(OCC(=O)O)cc3)NC(=O)[C@H](CN)NC(=O)CSC[C@@H](C(N)=O)NC(=O)[C@H](CCCN)NC(=O)[C@H](C(C)C)NC(=O)[C@H](CC3CCCCC3)NC(=O)[C@H](CCN)NC(=O)[C@@H](CC(C)C)NC(=O)[C@H](CCCN)NC(=O)[C@H](Cc3ccc(OCC(=O)O)cc3)NC(=O)[C@H](Cc3ccc(-c4ccccc4)cc3)NC(=O)[C@H](Cc3ccc(OCC(=O)O)cc3)NC2=O)c1 [Compound 1779] ({CH2CO}-[Dap]Y(Carboxymethyl)D[Phe(3-Me)]Y(Carboxymethyl)[Bip]Y(Carboxymethyl)[Orn][dL][Dab][Cha]V[Orn]C-NH2; thioether N-14)
6.4 nM | Cc1cccc(C[C@@H]2NC(=O)[C@H](CC(=O)O)NC(=O)[C@H](Cc3ccc(OCC(=O)O)cc3)NC(=O)[C@H](Cc3ccsc3)NC(=O)CSC[C@@H](C(=O)N[C@H](C)C(N)=O)NC(=O)[C@H](CO)NC(=O)[C@H](C(C)(C)O)NC(=O)[C@H](CC3CCCCC3)NC(=O)[C@H](CCN)NC(=O)[C@@H](CC(C)C)NC(=O)[C@H](CCCN)NC(=O)[C@H](Cc3ccc(OCC(=O)O)cc3)NC(=O)[C@H](Cc3ccc(-c4ccccc4)cc3)NC(=O)[C@H](Cc3ccc(OCC(=O)O)cc3)NC2=O)c1 [Compound 2654] ({CH2CO}-[3Thi]Y(Carboxymethyl)D[Phe(3-Me)]Y(Carboxymethyl)[Bip]Y(Carboxymethyl)[Orn][dL][Dab][Cha][Val(3-OH)]SC[dA]-NH2; thioether N-14)
10.6 nM | CC(C)C[C@H]1NC(=O)[C@H](CCCN)NC(=O)[C@H](C(C)C)NC(=O)[C@H](Cc2ccc(-c3ccccc3)cc2)NC(=O)[C@H](C(C)C)NC(=O)[C@H](Cc2c[nH]c3ccccc23)NC(=O)[C@H](CC(=O)O)NC(=O)[C@H](Cc2ccc(OCC(=O)O)cc2)NC(=O)[C@H](Cc2ccncc2)NC(=O)CSC[C@@H](C(=O)N[C@@H](CCN)C(N)=O)NC(=O)[C@H](C(C)O)NC(=O)[C@H](C(C)(C)O)NC(=O)[C@H](CC2CCCCC2)NC(=O)[C@H](CCN)NC1=O (stereo partly drawn) [Compound 2629] ({CH2CO}-[4Pal]Y(Carboxymethyl)DWV[Bip]V[Orn][dL][Dab][Cha][Val(3-OH)][Thr(3ξ)]C[Dab]-NH2; thioether N-14)
21.3 nM | CCC(C)[C@@H]1NC(=O)[C@H](Cc2ccc(-c3ccccc3)cc2)NC(=O)[C@H](C(C)C)NC(=O)[C@H](Cc2cccc(C)c2)NC(=O)[C@H](CC(=O)O)NC(=O)[C@H](Cc2ccc(OCC(=O)O)cc2)NC(=O)[C@H](Cc2ccc(OCC(=O)O)cc2)NC(=O)CSC[C@@H](C(=O)N[C@@H](C)C(N)=O)NC(=O)[C@H](CO)NC(=O)[C@H](C(C)C)NC(=O)[C@H](CC2CCCCC2)NC(=O)[C@H](CCN)NC(=O)[C@@H](CC(C)C)NC(=O)[C@H](CCCN)NC1=O (stereo partly drawn) [Compound 2534]
14.1 nM | CCC(C)[C@@H]1NC(=O)[C@H](Cc2ccc(-c3ccccc3)cc2)NC(=O)[C@H](C(C)C)NC(=O)[C@H](Cc2cccc(C)c2)NC(=O)[C@H](CC(=O)O)NC(=O)[C@H](Cc2ccc(-c3cccc(C(=O)O)c3)cc2)NC(=O)[C@H](CN)NC(=O)CSC[C@@H](C(=O)N[C@@H](C)C(N)=O)NC(=O)[C@H]([C@@H](C)O)NC(=O)[C@H](C(C)C)NC(=O)[C@H](CC2CCCCC2)NC(=O)[C@H](CCN)NC(=O)[C@@H](CC(C)C)NC(=O)[C@H](CCCN)NC1=O (stereo partly drawn) [Compound 2224]

— patent US20250163104A1, “MACROCYCLIC IMMUNOMODULATORS” (priority 2021, published 2025)
